Reference: patent publication US20240067693A1, “POLYPEPTIDES AND USES THEREOF” (MEDIMMUNE LIMITED, priority 2020, published 2024)
Numbered stars: 1 amine (or outer) side, 2 acyl side, 3 side chain; on linkers, the order of the positions; unused ones are H or OH. Bridge positions count the residues as written; N and C are the ends. Square brackets hold non-standard residues; d marks the D form. Side chains are listed from the residue outwards. Peptide text beside a SMILES is read from it. * marks the point of attachment. C18 diacid = O=C(O)CCCCCCCCCCCCCCCCC(=O)*; γGlu = O=C(O)[C@H](CCC(=O)[*:2])N[*:1]; αMeF = C[C@](N)(Cc1ccccc1)C(=O)O; Aib = CC(C)(N)C(=O)O

Columns and labels:
in vivo = details: male, Sprague-Dawley, rat, 20 nmol/kg
[1] = biological target: T1, human calcitonin receptor (hCTR) (Homo sapiens, UniProt P30988); experiment: cAMP production in 1321N1 cells with stable recombinant expression of human calcitonin receptor (hCTR); assay type: cell-based; details: cAMP, 1321N1 cells, assay buffer with 0.1% BSA; read-out: EC50 (pM) hCTR
T1 construct: expressed in transfected cells
T1 sequence (P30988 25-474): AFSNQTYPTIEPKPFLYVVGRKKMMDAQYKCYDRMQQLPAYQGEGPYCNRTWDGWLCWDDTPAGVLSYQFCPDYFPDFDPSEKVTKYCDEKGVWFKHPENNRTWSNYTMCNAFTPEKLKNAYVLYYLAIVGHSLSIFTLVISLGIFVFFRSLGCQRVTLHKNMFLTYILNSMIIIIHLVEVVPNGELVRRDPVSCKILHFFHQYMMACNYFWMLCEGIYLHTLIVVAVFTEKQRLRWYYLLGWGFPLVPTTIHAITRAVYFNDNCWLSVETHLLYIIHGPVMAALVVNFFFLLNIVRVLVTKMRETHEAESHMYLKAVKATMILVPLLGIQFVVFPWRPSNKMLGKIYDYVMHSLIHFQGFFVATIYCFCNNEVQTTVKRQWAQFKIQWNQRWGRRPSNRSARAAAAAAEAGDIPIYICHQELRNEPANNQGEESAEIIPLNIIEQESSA
Summary of the method: (§1)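 Thawed cells in HBSS/0.1% BSA/25 mM HEPES pH 7.4 with 0.5 mM IBMX were incubated with peptides 30 min at room temperature; cAMP read by HTRF. EC50 from 4-parameter fit of % activation relative to maximal amylin or calcitonin effect.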

[2] = biological target: T2, human amylin receptor (calcitonin receptor co-expressed with receptor activity modifying protein, RAMP3) (hAMYR3) (Homo sapiens, UniProt O60896+P30988); experiment: cAMP production in 1321N1 cells with stable recombinant expression of human amylin receptor (hAMYR3); assay type: cell-based; details: for Ratio (selectivity hAMYR vs hCTR, ratio of EC50 values at the two receptors): EC50 hCTR / EC50 hAMYR3; for EC50: cAMP, 1321N1 cells, assay buffer with 0.1% BSA, read-out: EC50 (pM) hAMYR3
T2 construct: expressed in transfected cells
T2 sequence (P30988 25-474): T1 sequence (P30988 25-474)
T2 sequence (O60896 24-148 partner): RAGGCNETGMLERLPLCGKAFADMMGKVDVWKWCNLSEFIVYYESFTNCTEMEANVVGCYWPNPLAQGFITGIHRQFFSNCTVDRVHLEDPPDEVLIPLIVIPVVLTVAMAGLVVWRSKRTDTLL
Summary of the method: as §1

[3] = Thioflavin T fibrillation assay; assay type: physicochemical; details: ThT fibrillation assay; peptide 1 mg/mL in 25 mM sodium acetate buffer pH 4.0; 6 days at 37 °C with shaking; >144 h = no increase
Summary of the method: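 Peptides at 1 mg/mL in 25 mM sodium acetate pH 4.0 with ThT (from 0.25 mM stock), incubated 6 days at 37 °C with intermittent orbital shaking at 500–750 rpm. Fluorescence (ex 444/em 480 nm) read every 30 min; value is average time to a rise in baseline-corrected signal.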

[4] = Pharmacokinetic determination via IV and SC administration in Sprague Dawley rats; details: male, rat, plasma, 20 nmol/kg

SMILES	half-life (in vivo; iv) [h]	half-life (in vivo; sc) [h]	EC50 [1] [pM]	Ratio (selectivity hAMYR vs hCTR, ratio of EC50 values at the two receptors) [2]	EC50 [2] [pM]	Time taken to detect increase in fluorescence intensity [3] [h]	half-life ([4]; iv) [h]	half-life ([4]; sc) [h]
CC[C@H](C)[C@H](NC(=O)[C@@H]1CCCN1C(=O)CNC(=O)[C@](C)(Cc1ccccc1)NC(=O)[C@H](CC(N)=O)NC(=O)[C@H](CC(N)=O)NC(=O)[C@H](CO)NC(=O)[C@H](CO)NC(=O)[C@H](Cc1c[nH]cn1)NC(=O)[C@@H](NC(=O)[C@H](CC(C)C)NC(=O)[C@H](Cc1ccccc1)NC(=O)[C@H](CC(N)=O)NC(=O)[C@H](C)NC(=O)[C@H](CC(C)C)NC(=O)[C@H](CCCNC(=N)N)NC(=O)[C@H](CCC(N)=O)NC(=O)[C@@H](NC(=O)[C@H](C)NC(=O)[C@@H]1CSSC[C@H](NC(=O)[C@@H](N)CCCCNC(=O)CC[C@H](NC(=O)CC[C@H](NC(=O)CCCCCCCCCCCCCCCCC(=O)O)C(=O)O)C(=O)O)C(=O)N[C@@H](CC(N)=O)C(=O)N[C@@H]([C@@H](C)O)C(=O)N[C@@H](C)C(=O)N[C@@H]([C@@H](C)O)C(=O)N1)[C@@H](C)O)C(C)C)C(=O)N[C@@H](CC(C)C)C(=O)N1CCC[C@H]1C(=O)N1CCC[C@H]1C(=O)N[C@H](C(=O)N[C@@H](CC(N)=O)C(=O)N[C@H](C(=O)NCC(=O)N[C@@H](CO)C(=O)N[C@@H](CCCNC(=N)N)C(=O)N[C@H](C(=O)N[C@@H](Cc1ccc(O)cc1)C(N)=O)[C@@H](C)O)C(C)C)[C@@H](C)O [Peptide 21, K(γE-γE-C18diacid)[CNTATC]ATQRLANFLVHSSNN(αMePhe)GPILPPTNVGSRTY-amide] (H-K([γGlu-γGlu-C18 diacid])CNTATCATQRLANFLVHSSNN[αMeF]GPILPPTNVGSRTY-NH2; disulfide 2-7; N-terminus assumed)	8	8.1	3410	25	136	>144		
CC[C@H](C)[C@H](NC(=O)[C@@H]1CCCN1C(=O)CNC(=O)[C@](C)(Cc1ccccc1)NC(=O)[C@H](CC(N)=O)NC(=O)[C@H](CC(N)=O)NC(=O)[C@H](CO)NC(=O)[C@H](CO)NC(=O)[C@H](Cc1c[nH]cn1)NC(=O)[C@@H](NC(=O)[C@H](CC(C)C)NC(=O)[C@H](Cc1ccccc1)NC(=O)[C@H](CC(N)=O)NC(=O)[C@H](C)NC(=O)[C@H](CC(C)C)NC(=O)[C@H](CCCNC(=N)N)NC(=O)[C@H](CCC(N)=O)NC(=O)[C@@H](NC(=O)[C@H](C)NC(=O)[C@@H]1CSSC[C@H](NC(=O)[C@@H](N)CCCCNC(=O)CC[C@H](NC(=O)CCCCCCCCCCCCCCCCC(=O)O)C(=O)O)C(=O)N[C@@H](CC(N)=O)C(=O)N[C@@H]([C@@H](C)O)C(=O)N[C@@H](C)C(=O)N[C@@H]([C@@H](C)O)C(=O)N1)[C@@H](C)O)C(C)C)C(=O)N[C@@H](CC(C)C)C(=O)N1CCC[C@H]1C(=O)N1CCC[C@H]1C(=O)N[C@H](C(=O)N[C@@H](CCCNC(=N)N)C(=O)N[C@H](C(=O)NCC(=O)N[C@@H](CO)C(=O)N[C@@H](CC(N)=O)C(=O)N[C@H](C(=O)N[C@@H](Cc1ccc(O)cc1)C(N)=O)[C@@H](C)O)C(C)C)[C@@H](C)O [Peptide 25, K(γE-C18diacid)[CNTATC]ATQRLANFLVHSSNN(αMePhe)GPILPPTRVGSNTY-amide] (H-K([γGlu-C18 diacid])CNTATCATQRLANFLVHSSNN[αMeF]GPILPPTRVGSNTY-NH2; disulfide 2-7)	6.9	8	1250	12	105	>144		

The next lines start with the values.

half-life (in vivo; iv) [h]	half-life (in vivo; sc) [h]	EC50 [1] [pM]	Ratio (selectivity hAMYR vs hCTR, ratio of EC50 values at the two receptors) [2]	EC50 [2] [pM]	Time taken to detect increase in fluorescence intensity [3] [h]	half-life ([4]; iv) [h]	half-life ([4]; sc) [h]	SMILES
		6390	19	331		7.2	11.6	CC[C@H](C)[C@H](NC(=O)[C@@H]1CCCN1C(=O)CNC(=O)[C@H](Cc1ccccc1)NC(=O)[C@H](CC(N)=O)NC(=O)C(C)(C)NC(=O)[C@H](CO)NC(=O)[C@H](CO)NC(=O)[C@H](Cc1c[nH]cn1)NC(=O)C(C)(C)NC(=O)[C@H](CC(C)C)NC(=O)[C@H](Cc1ccccc1)NC(=O)[C@H](CC(N)=O)NC(=O)[C@H](C)NC(=O)[C@H](CC(C)C)NC(=O)[C@H](CCCNC(=N)N)NC(=O)[C@H](CCC(N)=O)NC(=O)[C@@H](NC(=O)[C@H](C)NC(=O)[C@@H]1CSSC[C@H](NC(=O)[C@H](CCCCN)NC(=O)[C@@H](N)CCCCNC(=O)CC[C@H](NC(=O)CCCCCCCCCCCCCCCCC(=O)O)C(=O)O)C(=O)N[C@@H](CC(N)=O)C(=O)N[C@@H]([C@@H](C)O)C(=O)N[C@@H](C)C(=O)N[C@@H]([C@@H](C)O)C(=O)N1)[C@@H](C)O)C(=O)N[C@@H](CC(C)C)C(=O)N1CCC[C@H]1C(=O)N1CCC[C@H]1C(=O)N[C@H](C(=O)N[C@@H](CC(N)=O)C(=O)N[C@H](C(=O)NCC(=O)N[C@@H](CO)C(=O)N[C@@H](CC(N)=O)C(=O)N[C@H](C(=O)N[C@@H](Cc1ccc(O)cc1)C(N)=O)[C@@H](C)O)C(C)C)[C@@H](C)O [Peptide 36, K(γE-C18diacid)K[CNTATC]ATQRLANFL(Aib)HSS(Aib)NFGPILPPTNVGSNTY-amide] (H-K([γGlu-C18 diacid])KCNTATCATQRLANFL[Aib]HSS[Aib]NFGPILPPTNVGSNTY-NH2; disulfide 3-8; N-terminus assumed)
10.3	12.5	5400	23	235	>144			CC[C@H](C)[C@H](NC(=O)[C@@H]1CCCN1C(=O)CNC(=O)[C@H](Cc1ccccc1)NC(=O)[C@H](CC(N)=O)NC(=O)C(C)(C)NC(=O)[C@H](CO)NC(=O)[C@H](CO)NC(=O)[C@H](Cc1c[nH]cn1)NC(=O)[C@@H](NC(=O)[C@H](CC(C)C)NC(=O)[C@H](Cc1ccccc1)NC(=O)[C@H](CC(N)=O)NC(=O)[C@H](C)NC(=O)[C@H](CC(C)C)NC(=O)[C@H](CCCNC(=N)N)NC(=O)[C@H](CCC(N)=O)NC(=O)[C@@H](NC(=O)[C@H](C)NC(=O)[C@@H]1CSSC[C@H](NC(=O)[C@H](CCCCN)NC(=O)[C@@H](N)CCCCNC(=O)CC[C@H](NC(=O)CC[C@H](NC(=O)CCCCCCCCCCCCCCCCC(=O)O)C(=O)O)C(=O)O)C(=O)N[C@@H](CC(N)=O)C(=O)N[C@@H]([C@@H](C)O)C(=O)N[C@@H](C)C(=O)N[C@@H]([C@@H](C)O)C(=O)N1)[C@@H](C)O)C(C)C)C(=O)N[C@@H](CC(C)C)C(=O)N1CCC[C@H]1C(=O)N1CCC[C@H]1C(=O)N[C@H](C(=O)N[C@@H](CCCNC(=N)N)C(=O)N[C@H](C(=O)NCC(=O)N[C@@H](CO)C(=O)N[C@@H](CC(N)=O)C(=O)N[C@H](C(=O)N[C@@H](Cc1ccc(O)cc1)C(N)=O)[C@@H](C)O)C(C)C)[C@@H](C)O [Peptide 70, K(γE-γE-C18diacid)K[CNTATC]ATQRLANFLVHSS(Aib)NFGPILPPTRVGSNTY-amide] (H-K([γGlu-γGlu-C18 diacid])KCNTATCATQRLANFLVHSS[Aib]NFGPILPPTRVGSNTY-NH2; disulfide 3-8; N-terminus assumed)
9.7	9.9	2970	7	407	>144			CC[C@H](C)[C@H](NC(=O)[C@@H]1CCCN1C(=O)CNC(=O)[C@H](Cc1ccccc1)NC(=O)[C@H](CC(N)=O)NC(=O)C(C)(C)NC(=O)[C@H](CO)NC(=O)[C@H](CO)NC(=O)[C@H](Cc1c[nH]cn1)NC(=O)[C@@H](NC(=O)[C@H](CC(C)C)NC(=O)[C@H](Cc1ccccc1)NC(=O)[C@H](CC(N)=O)NC(=O)[C@H](C)NC(=O)[C@H](CC(C)C)NC(=O)[C@H](CCCNC(=N)N)NC(=O)[C@H](CCC(N)=O)NC(=O)[C@@H](NC(=O)[C@H](C)NC(=O)[C@@H]1CSSC[C@H](NC(=O)[C@H](CCCCN)NC(=O)[C@@H](N)CCCCNC(=O)CC[C@H](NC(=O)CCCCCCCCCCCCCCCCC(=O)O)C(=O)O)C(=O)N[C@@H](CC(N)=O)C(=O)N[C@@H]([C@@H](C)O)C(=O)N[C@@H](C)C(=O)N[C@@H]([C@@H](C)O)C(=O)N1)[C@@H](C)O)C(C)C)C(=O)N[C@@H](CC(C)C)C(=O)N1CCC[C@H]1C(=O)N1CCC[C@H]1C(=O)N[C@H](C(=O)NC(C)(C)C(=O)N[C@H](C(=O)NCC(=O)N[C@@H](CO)C(=O)N[C@@H](CC(N)=O)C(=O)N[C@H](C(=O)N[C@@H](Cc1ccc(O)cc1)C(N)=O)[C@@H](C)O)C(C)C)[C@@H](C)O [Peptide 80, K(γE-C18diacid)K[CNTATC]ATQRLANFLVHSS(Aib)NFGPILPPT(Aib)VGSNTY-amide] (H-K([γGlu-C18 diacid])KCNTATCATQRLANFLVHSS[Aib]NFGPILPPT[Aib]VGSNTY-NH2; disulfide 3-8; N-terminus assumed)
